Results published in US10112929B2, “Lactams as inhibitors of rock” (BRISTOL-MYERS SQUIBB COMPANY, priority 2015, dated 2018).
pIC50: −log10 of the molar value.

The compounds below were run against ROCK2 (Homo sapiens (Human), UniProt O75116).
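Note: rho kinase enzyme reaction halted with EDTA, phospho- and non-phospho peptide separated for read-out, kinase activity inhibition derived across a dose-response series, DMSO under 2%.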

Sequence of ROCK2 (O75116 whole entry, species assumed): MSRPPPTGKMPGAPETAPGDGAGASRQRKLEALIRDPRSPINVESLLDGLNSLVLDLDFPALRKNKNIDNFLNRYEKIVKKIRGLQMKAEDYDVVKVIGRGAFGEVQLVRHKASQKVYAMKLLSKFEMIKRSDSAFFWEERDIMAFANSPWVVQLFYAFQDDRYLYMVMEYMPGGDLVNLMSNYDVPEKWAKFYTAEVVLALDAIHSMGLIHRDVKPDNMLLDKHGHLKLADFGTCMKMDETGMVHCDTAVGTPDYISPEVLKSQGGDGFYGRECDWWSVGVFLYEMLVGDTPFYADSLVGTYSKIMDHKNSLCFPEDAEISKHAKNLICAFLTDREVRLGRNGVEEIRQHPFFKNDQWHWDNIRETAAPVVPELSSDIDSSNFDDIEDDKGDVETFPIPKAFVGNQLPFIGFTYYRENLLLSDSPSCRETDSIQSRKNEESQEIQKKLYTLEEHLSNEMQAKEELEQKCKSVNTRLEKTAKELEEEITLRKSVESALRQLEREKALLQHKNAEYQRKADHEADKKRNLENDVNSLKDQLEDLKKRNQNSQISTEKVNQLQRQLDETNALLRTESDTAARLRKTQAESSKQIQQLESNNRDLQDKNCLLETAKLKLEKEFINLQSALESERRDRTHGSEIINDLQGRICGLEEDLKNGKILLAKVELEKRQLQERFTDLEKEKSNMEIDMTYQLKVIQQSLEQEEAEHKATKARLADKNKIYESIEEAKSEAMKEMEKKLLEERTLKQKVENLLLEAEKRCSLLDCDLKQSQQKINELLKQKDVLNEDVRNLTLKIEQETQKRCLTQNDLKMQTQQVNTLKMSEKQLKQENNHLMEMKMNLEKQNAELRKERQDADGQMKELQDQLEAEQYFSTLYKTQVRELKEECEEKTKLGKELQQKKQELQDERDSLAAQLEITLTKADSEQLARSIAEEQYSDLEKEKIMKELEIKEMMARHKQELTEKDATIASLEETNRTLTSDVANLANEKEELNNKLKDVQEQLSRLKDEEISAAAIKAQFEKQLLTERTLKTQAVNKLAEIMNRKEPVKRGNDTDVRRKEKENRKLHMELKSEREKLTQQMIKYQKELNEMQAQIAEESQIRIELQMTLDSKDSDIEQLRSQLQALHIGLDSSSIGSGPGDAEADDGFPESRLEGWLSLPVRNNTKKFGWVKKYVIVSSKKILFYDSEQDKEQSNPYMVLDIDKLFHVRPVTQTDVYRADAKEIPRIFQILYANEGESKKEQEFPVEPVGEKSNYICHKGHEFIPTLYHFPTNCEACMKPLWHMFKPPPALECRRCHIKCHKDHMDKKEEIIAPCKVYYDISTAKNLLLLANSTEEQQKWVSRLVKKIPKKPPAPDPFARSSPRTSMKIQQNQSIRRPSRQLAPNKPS

`COc1cc(NC2CCN(c3ccc(-c4cn[nH]c4)c(C(F)(F)F)c3)C2=O)ccc1F` (single isomer, unassigned) [Example 372, 1-(4-(1H-pyrazol-4-yl)-3-(trifluoromethyl)phenyl)-3-((4-fluoro-3-methoxyphenyl)amino)pyrrolidin-2-one] and `COc1cccc(NC2CCN(c3ccc(-c4cn[nH]c4)c(C(F)(F)F)c3)C2=O)c1` (single isomer, unassigned) [Example 368, 1-(4-(1H-pyrazol-4-yl)-3-(trifluoromethyl)phenyl)-3-((3-methoxyphenyl)amino) pyrrolidin-2-one] fall in the same range of pIC50: 5.66 to 7.00 for the first, 5.66 to 7.00 for the second.

First: COc1cccc(NC2CCN(c3ccc(-c4cn[nH]c4)cc3)C2=O)c1 (single isomer, unassigned) [Example 29, 1-(4-(1H-pyrazol-4-yl)phenyl)-3-((3-methoxyphenyl)amino)pyrrolidin-2-one]
Second: COc1cccc(NC2CCN(c3ccc(-c4cn[nH]c4)nc3)C2=O)c1 (single isomer, unassigned) [Example 298, 1-(6-(1H-pyrazol-4-yl)pyridin-3-yl)-3-((3-methoxyphenyl)amino)pyrrolidin-2-one]
The pIC50 of the first is higher: greater than 8.00 for the first, 7.00 to 8.00 for the second.

`COc1cc(F)cc(NC2CCN(c3ccc(-c4cn[nH]c4)c(OC)n3)C2=O)c1` (single isomer, unassigned) [Example 199, 3-((3-fluoro-5-methoxyphenyl)amino)-1-(6-methoxy-5-(1H-pyrazol-4-yl)pyridin-2 yl)pyrrolidin-2-one] and `COc1cc(NC2CCN(c3ccc(-c4cn[nH]c4)c(OC)n3)C2=O)ccc1F` (single isomer, unassigned) [Example 208, 3-((4-fluoro-3-methoxyphenyl)amino)-1-(6-methoxy-5-(1H-pyrazol-4-yl)pyridin-2-yl)pyrrolidin-2-one] cannot be ordered by pIC50: greater than 8.00 for the first, greater than 8.00 for the second.

Compared with `Cc1nc(N2CCC(Nc3cccc(OC(F)F)c3)C2=O)ccc1-c1cn[nH]c1` (single isomer, unassigned) [Example 202, 3-((3-(difluoromethoxy)phenyl)amino)-1-(6-methyl-5-(1H-pyrazol-4-yl)pyridin-2-yl)pyrrolidin-2-one], `COc1nc(N2CCC(Nc3cccc(OC(F)F)c3)C2=O)ccc1-c1cn[nH]c1` (single isomer, unassigned) [Example 221, 3-((3-(difluoromethoxy)phenyl)amino)-1-(6-methoxy-5-(1H-pyrazol-4-yl)pyridin-2-yl)pyrrolidin-2-one] is higher in pIC50: 7.00 to 8.00 for the first, greater than 8.00 for the second. The second is the more potent here.

`COc1cc(NC2CCN(c3ccc(-c4cn[nH]c4)nc3)C2=O)ccc1F` (single isomer, unassigned) [Example 300, 1-(6-(1H-pyrazol-4-yl)pyridin-3-yl)-3-((4-fluoro-3-methoxyphenyl)amino)pyrrolidin-2-one] and `COc1cc(NC2CCN(c3ccc(-c4cn[nH]c4)cn3)C2=O)ccc1F` (single isomer, unassigned) [Example 84, 1-(5-(1H-pyrazol-4-yl)pyridin-2-yl)-3-((4-fluoro-3-methoxyphenyl)amino)pyrrolidin-2-one] fall in the same range of pIC50: 7.00 to 8.00 for the first, 7.00 to 8.00 for the second.

First: COc1cc(F)cc(NC2CCN(c3ncc(-c4cn[nH]c4)cc3F)C2=O)c1 (single isomer, unassigned) [Example 360, 1-(3-fluoro-5-(1H-pyrazol-4-yl)pyridin-2-yl)-3-((3-fluoro-5-methoxyphenyl)amino) pyrrolidin-2-one]
Second: COc1cc(F)cc(NC2CCN(c3ccc(-c4cn[nH]c4)cn3)C2=O)c1 (single isomer, unassigned) [Example 87, 1-(5-(1H-pyrazol-4-yl)pyridin-2-yl)-3-((3-fluoro-5-methoxyphenyl)amino)pyrrolidin-2-one]
The pIC50 of the first is lower: 5.66 to 7.00 for the first, 7.00 to 8.00 for the second. The second is the more potent here.

`COc1ccc(NC2CCN(c3ccc(-c4cn[nH]c4)c(Cl)c3)C2=O)cc1F` (single isomer, unassigned) [Example 157, 1-(3-chloro-4-(1H-pyrazol-4-yl)phenyl)-3 ((3-fluoro-4-methoxyphenyl)amino) pyrrolidin-2-one] and `COc1ccc(NC2CCN(c3ccc(-c4cn[nH]c4)c(OC)c3)C2=O)cc1F` (single isomer, unassigned) [Example 142, 3-((3-fluoro-4-methoxyphenyl)amino)-1-(3-methoxy-4-(1H-pyrazol-4-yl)phenyl) pyrrolidin-2-one] fall in the same range of pIC50: 5.66 to 7.00 for the first, 5.66 to 7.00 for the second.

`COc1cc(N2CCC(Nc3c(F)cccc3OC)C2=O)ccc1-c1cn[nH]c1` (single isomer, unassigned) [Example 136, 3-((2-fluoro-6-methoxyphenyl)amino)-1-(3-methoxy-4-(1H-pyrazol-4-yl)phenyl) pyrrolidin-2-one] and `COc1ccc(F)c(NC2CCN(c3ccc(-c4cn[nH]c4)c(OC)c3)C2=O)c1` (single isomer, unassigned) [Example 149, 3-((2-fluoro-5-methoxyphenyl)amino)-1-(3-methoxy-4-(1H-pyrazol-4-yl)phenyl) pyrrolidin-2-one] fall in the same range of pIC50: 7.00 to 8.00 for the first, 7.00 to 8.00 for the second.

`COc1cc(NC2CCN(c3ccc(-c4cn[nH]c4)cc3F)C2=O)ccc1F` (single isomer, unassigned) [Example 331, 3-((4-fluoro-3-methoxyphenyl)amino)-1-(2-fluoro-4-(1H-pyrazol-4-yl)phenyl) pyrrolidin-2-one] and `COc1cc(NC2CCN(c3ccc(-c4cn[nH]c4)c(F)c3F)C2=O)ccc1F` (single isomer, unassigned) [Example 308, 1-(2,3-difluoro-4-(1H-pyrazol-4-yl)phenyl)-3-((4-fluoro-3-methoxyphenyl)amino)pyrrolidin-2-one] fall in the same range of pIC50: 7.00 to 8.00 for the first, 7.00 to 8.00 for the second.

First: COc1cc(NC2CCN(c3ccc(-c4cn[nH]c4)c(OC(F)F)c3)C2=O)ccc1F (single isomer, unassigned) [Example 107, 1-[3-(difluoromethoxy)-4-(1H-pyrazol-4-yl)phenyl]-3-[(4-fluoro-3-methoxyphenyl)amino]pyrrolidin-2-one]
Second: COc1cc(NC2CCN(c3ccc(-c4cn[nH]c4)c(C#N)c3)C2=O)ccc1F (single isomer, unassigned) [Example 380, 5-(3-((4-fluoro-3-methoxyphenyl)amino)-2-oxopyrrolidin-1-yl)-2-(1H-pyrazol-4-yl)benzonitrile]
The pIC50 of the first is higher: 7.00 to 8.00 for the first, 5.66 to 7.00 for the second. The first is the more potent here.

`COc1cccc(NC2CCN(c3ccc(-c4cn[nH]c4)c(F)c3)C2=O)c1` (single isomer, unassigned) [Example 46, 1-(3-fluoro-4-(1H-pyrazol-4-yl)phenyl)-3-((3-methoxyphenyl)amino)pyrrolidin-2-one] and `COc1cccc(NC2CCN(c3ccc(-c4cn[nH]c4)c(OC)c3)C2=O)c1` (single isomer, unassigned) [Example 75, 1-(3-methoxy-4-(1H-pyrazol-4-yl)phenyl)-3-((3-methoxyphenyl)amino)pyrrolidin-2-one] cannot be ordered by pIC50: greater than 8.00 for the first, greater than 8.00 for the second.

`COc1cc(NC2CCN(c3ccc(-c4cn[nH]c4)c(OC)c3)C2=O)cc(OC)c1` (single isomer, unassigned) [Example 140, 3-((3,5-dimethoxyphenyl)amino)-1-(3-methoxy-4-(1H-pyrazol-4-yl)phenyl) pyrrolidin-2-one] and `CCOc1cc(N2CCC(Nc3cc(OC)ccc3F)C2=O)ccc1-c1cn[nH]c1` (single isomer, unassigned) [Example 41, 1-(3-ethoxy-4-(1H-pyrazol-4-yl)phenyl)-3-((2-fluoro-5-methoxyphenyl)amino)pyrrolidin-2-one] fall in the same range of pIC50: 5.66 to 7.00 for the first, 5.66 to 7.00 for the second.

`COc1c(F)cccc1NC1CCN(c2ccc(-c3cn[nH]c3)cc2F)C1=O` (single isomer, unassigned) [Example 343, 3-((3-fluoro-2-methoxyphenyl)amino)-1-(2-fluoro-4-(1H-pyrazol-4-yl)phenyl) pyrrolidin-2-one] and `COc1cccc(NC2CCN(c3ccc(-c4cn[nH]c4)cc3Cl)C2=O)c1` (single isomer, unassigned) [Example 167, 1-(2-chloro-4-(1H-pyrazo1-4-yl)phenyl)-3 ((3-methoxyphenyl)amino)pyrrolidin-2-one] fall in the same range of pIC50: 5.66 to 7.00 for the first, 5.66 to 7.00 for the second.

First: CCc1nc(N2CCC(Nc3cccc(OC)c3)C2=O)ccc1-c1cn[nH]c1 (single isomer, unassigned) [Example 314, 1-(6-ethyl-5-(1H-pyrazol-4-yl)pyridin-2-yl)-3-((3-methoxyphenyl)amino) pyrrolidin-2-one]
Second: COc1ccc(F)c(NC2CCN(c3ccc(-c4cn[nH]c4)cn3)C2=O)c1 (single isomer, unassigned) [Example 304, 1-(5-(1H-pyrazol-4-yl)pyridin-2-yl)-3-((2-fluoro-5-methoxyphenyl)amino)pyrrolidin-2-one]
The pIC50 of the first is higher: greater than 8.00 for the first, 7.00 to 8.00 for the second. The first is the more potent here.

First: COc1cccc(OC2CCN(c3ccc(-c4ccc5cn[nH]c5c4)c(OC)n3)C2=O)c1 (single isomer, unassigned) [Example 125, 1-(5-(1H-indazol-6-yl)-6-methoxypyridin-2-yl)-3-(3-methoxyphenoxy)pyrrolidin-2-one]
Second: COc1cccc(NC2CCN(c3ccc(-c4ccnc(N)n4)cc3)C2=O)c1 (single isomer, unassigned) [Example 79, 1-(4-(2-aminopyrimidin-4-yl)phenyl)-3-((3-methoxyphenyl)amino)pyrrolidin-2-one]
The pIC50 of the first is lower: 5.66 to 7.00 for the first, 7.00 to 8.00 for the second.

First: COc1cc(F)cc(NC2CCN(c3ccc(-c4cn[nH]c4)cc3)C2=O)c1 (single isomer, unassigned) [Example 27, 1-(4-(1H-pyrazol-4-yl)phenyl)-3-((3-fluoro-5-methoxyphenyl)amino)pyrrolidin-2-one]
Second: COCc1cc(N2CCC(Nc3ccc(F)c(OC)c3)C2=O)ccc1-c1cn[nH]c1 (single isomer, unassigned) [Example 182, 3-((4-fluoro-3-methoxyphenyl)amino)-1-(3-(methoxymethyl)-4-(1H-pyrazol-4-yl)phenyl)pyrrolidin-2-one]
The pIC50 of the first is higher: greater than 8.00 for the first, 5.66 to 7.00 for the second. The first is the more potent here.

First: COc1cc(NC2CCN(c3ccc(-c4cn[nH]c4)c(OCCN(C)C)c3)C2=O)ccc1F (racemic) [Example 347, 1-(3-(2-(dimethylamino)ethoxy)-4-(1H-pyrazol-4-yl)phenyl)-3-((4-fluoro-3-methoxyphenyl)amino)pyrrolidin-2-one]
Second: O=C1C(Nc2ccccc2)CCN1c1ccc(-c2cn[nH]c2)c(F)c1 (single isomer, unassigned) [Example 44, 1-(3-fluoro-4-(1H-pyrazol-4-yl)phenyl)-3-(phenylamino)pyrrolidin-2-one]
The pIC50 of the first is lower: 5.66 to 7.00 for the first, greater than 8.00 for the second.
